# ChEMBL document CHEMBL4627399, “Synthesis and Structure-Activity Relationships of 5'-Aryl-14-alkoxypyridomorphinans: Identification of a μ Opioid Receptor Agonist/δ Opioid Receptor Antagonist Ligand with Systemic Antinociceptive Activity and Diminished Opioid Side Effects” (J Med Chem, 2020)
# Activity calls are given as the source filed them. The rule behind the calls is not given here.
# Tested on: not listed separately
# Test: Stability in human liver microsomes at 1 uM measured up to 60 mins by LC-MS/MS analysis
# Assay type: ADME, Microsome
# Conditions: 1 h
row,SMILES,Stability
1,CN(C)Cc1ccccc1-c1cnc2c(c1)C[C@@]1(OCCCc3ccccc3)[C@H]3Cc4ccc(O)c5c4[C@@]1(CCN3CC1CC1)[C@H]2O5,Stable
2,Oc1ccc2c3c1O[C@H]1c4ncc(-c5cnccn5)cc4C[C@@]4(OCCCc5ccccc5)[C@@H](C2)N(CC2CC2)CC[C@]314,Stable
3,Cn1cc(-c2cnc3c(c2)C[C@@]2(OCCCc4ccccc4)[C@H]4Cc5ccc(O)c6c5[C@@]2(CCN4CC2CC2)[C@H]3O6)cn1,Stable
4,CN(C)c1ccccc1-c1cnc2c(c1)C[C@@]1(OCCCc3ccccc3)[C@H]3Cc4ccc(O)c5c4[C@@]1(CCN3CC1CC1)[C@H]2O5,Stable
5,Oc1ccc2c3c1O[C@H]1c4ncc(-c5cncnc5)cc4C[C@@]4(OCCCc5ccccc5)[C@@H](C2)N(CC2CC2)CC[C@]314,Stable
6,CN(C)c1ccc(-c2cnc3c(c2)C[C@@]2(OCCCc4ccccc4)[C@H]4Cc5ccc(O)c6c5[C@@]2(CCN4CC2CC2)[C@H]3O6)cc1,Stable
7,Oc1ccc2c3c1O[C@H]1c4ncc(-c5ccncn5)cc4C[C@@]4(OCCCc5ccccc5)[C@@H](C2)N(CC2CC2)CC[C@]314,Stable
8,Oc1ccc2c3c1O[C@H]1c4ncc(-n5cccc5)cc4C[C@@]4(OCCCc5ccccc5)[C@@H](C2)N(CC2CC2)CC[C@]314,Stable
9,CN(C)c1cccc(-c2cnc3c(c2)C[C@@]2(OCCCc4ccccc4)[C@H]4Cc5ccc(O)c6c5[C@@]2(CCN4CC2CC2)[C@H]3O6)c1,Stable

# Biological target: T1, Kappa-type opioid receptor (Homo sapiens, UniProt P41145)
# Test: Agonist activity at human kappa opioid receptor expressed in CHO cell membranes incubated for 1 hr by [35S]GTPgammaS binding assay
# Assay type: functional
# Conditions: cho
row,SMILES,EC50
1,CN(C)Cc1ccccc1-c1cnc2c(c1)C[C@@]1(OCCCc3ccccc3)[C@H]3Cc4ccc(O)c5c4[C@@]1(CCN3CC1CC1)[C@H]2O5,Not Active
2,Oc1ccc2c3c1O[C@H]1c4ncc(-c5cnccn5)cc4C[C@@]4(OCCCc5ccccc5)[C@@H](C2)N(CC2CC2)CC[C@]314,Not Active
3,Cn1cc(-c2cnc3c(c2)C[C@@]2(OCCCc4ccccc4)[C@H]4Cc5ccc(O)c6c5[C@@]2(CCN4CC2CC2)[C@H]3O6)cn1,Not Active
4,CN(C)c1ccccc1-c1cnc2c(c1)C[C@@]1(OCCCc3ccccc3)[C@H]3Cc4ccc(O)c5c4[C@@]1(CCN3CC1CC1)[C@H]2O5,Not Active
5,Oc1ccc2c3c1O[C@H]1c4ncc(-c5cncnc5)cc4C[C@@]4(OCCCc5ccccc5)[C@@H](C2)N(CC2CC2)CC[C@]314,Not Active
6,CN(C)c1ccc(-c2cnc3c(c2)C[C@@]2(OCCCc4ccccc4)[C@H]4Cc5ccc(O)c6c5[C@@]2(CCN4CC2CC2)[C@H]3O6)cc1,Not Active
7,Oc1ccc2c3c1O[C@H]1c4ncc(-c5ccncn5)cc4C[C@@]4(OCCCc5ccccc5)[C@@H](C2)N(CC2CC2)CC[C@]314,Not Active
8,Oc1ccc2c3c1O[C@H]1c4ncc(-n5cccc5)cc4C[C@@]4(OCCCc5ccccc5)[C@@H](C2)N(CC2CC2)CC[C@]314,Not Active
9,CN(C)c1cccc(-c2cnc3c(c2)C[C@@]2(OCCCc4ccccc4)[C@H]4Cc5ccc(O)c6c5[C@@]2(CCN4CC2CC2)[C@H]3O6)c1,Not Active

# Biological target: T1, Kappa-type opioid receptor
# Test: Displacement of [3H]-diprenorphine from human kappa opioid receptor expressed in CHO cell membranes incubated for 1 hr by competition radioligand binding assay
# Conditions: not given
row,SMILES,Ki [nM]
1,CN(C)Cc1ccccc1-c1cnc2c(c1)C[C@@]1(OCCCc3ccccc3)[C@H]3Cc4ccc(O)c5c4[C@@]1(CCN3CC1CC1)[C@H]2O5,22.7
2,Oc1ccc2c3c1O[C@H]1c4ncc(-c5cnccn5)cc4C[C@@]4(OCCCc5ccccc5)[C@@H](C2)N(CC2CC2)CC[C@]314,19.8
3,Cn1cc(-c2cnc3c(c2)C[C@@]2(OCCCc4ccccc4)[C@H]4Cc5ccc(O)c6c5[C@@]2(CCN4CC2CC2)[C@H]3O6)cn1,8.4
4,CN(C)c1ccccc1-c1cnc2c(c1)C[C@@]1(OCCCc3ccccc3)[C@H]3Cc4ccc(O)c5c4[C@@]1(CCN3CC1CC1)[C@H]2O5,7.96
5,Oc1ccc2c3c1O[C@H]1c4ncc(-c5cncnc5)cc4C[C@@]4(OCCCc5ccccc5)[C@@H](C2)N(CC2CC2)CC[C@]314,24.8
6,CN(C)c1ccc(-c2cnc3c(c2)C[C@@]2(OCCCc4ccccc4)[C@H]4Cc5ccc(O)c6c5[C@@]2(CCN4CC2CC2)[C@H]3O6)cc1,6.18
7,Oc1ccc2c3c1O[C@H]1c4ncc(-c5ccncn5)cc4C[C@@]4(OCCCc5ccccc5)[C@@H](C2)N(CC2CC2)CC[C@]314,30.8
8,Oc1ccc2c3c1O[C@H]1c4ncc(-n5cccc5)cc4C[C@@]4(OCCCc5ccccc5)[C@@H](C2)N(CC2CC2)CC[C@]314,13.8
9,CN(C)c1cccc(-c2cnc3c(c2)C[C@@]2(OCCCc4ccccc4)[C@H]4Cc5ccc(O)c6c5[C@@]2(CCN4CC2CC2)[C@H]3O6)c1,11.9

# Biological target: T1, Kappa-type opioid receptor
# Test: Agonist activity at human kappa opioid receptor expressed in CHO cell membranes assessed as stimulation of [35S]GTPgammaS binding incubated for 1 hr relative to […]
# Assay type: functional
# Conditions: not given
row,SMILES,Emax
1,CN(C)Cc1ccccc1-c1cnc2c(c1)C[C@@]1(OCCCc3ccccc3)[C@H]3Cc4ccc(O)c5c4[C@@]1(CCN3CC1CC1)[C@H]2O5,inactive
2,Oc1ccc2c3c1O[C@H]1c4ncc(-c5cnccn5)cc4C[C@@]4(OCCCc5ccccc5)[C@@H](C2)N(CC2CC2)CC[C@]314,inactive
3,Cn1cc(-c2cnc3c(c2)C[C@@]2(OCCCc4ccccc4)[C@H]4Cc5ccc(O)c6c5[C@@]2(CCN4CC2CC2)[C@H]3O6)cn1,inactive
4,CN(C)c1ccccc1-c1cnc2c(c1)C[C@@]1(OCCCc3ccccc3)[C@H]3Cc4ccc(O)c5c4[C@@]1(CCN3CC1CC1)[C@H]2O5,inactive
5,Oc1ccc2c3c1O[C@H]1c4ncc(-c5cncnc5)cc4C[C@@]4(OCCCc5ccccc5)[C@@H](C2)N(CC2CC2)CC[C@]314,inactive
6,CN(C)c1ccc(-c2cnc3c(c2)C[C@@]2(OCCCc4ccccc4)[C@H]4Cc5ccc(O)c6c5[C@@]2(CCN4CC2CC2)[C@H]3O6)cc1,inactive
7,Oc1ccc2c3c1O[C@H]1c4ncc(-c5ccncn5)cc4C[C@@]4(OCCCc5ccccc5)[C@@H](C2)N(CC2CC2)CC[C@]314,inactive
8,Oc1ccc2c3c1O[C@H]1c4ncc(-n5cccc5)cc4C[C@@]4(OCCCc5ccccc5)[C@@H](C2)N(CC2CC2)CC[C@]314,inactive
9,CN(C)c1cccc(-c2cnc3c(c2)C[C@@]2(OCCCc4ccccc4)[C@H]4Cc5ccc(O)c6c5[C@@]2(CCN4CC2CC2)[C@H]3O6)c1,inactive

# Biological target: T2, Delta-type opioid receptor (Homo sapiens, UniProt P41143)
# Test: Antagonist activity at human delta opioid receptor expressed in CHO cell membranes assessed as reduction in SNC80-induced [35S]GTPgammaS binding preincubated for 5 mins followed by SNC80 addition and measured after 1 hr
# Assay type: functional
# Conditions: not given
row,SMILES,IC50 [nM]
1,CN(C)Cc1ccccc1-c1cnc2c(c1)C[C@@]1(OCCCc3ccccc3)[C@H]3Cc4ccc(O)c5c4[C@@]1(CCN3CC1CC1)[C@H]2O5,11.7
2,Oc1ccc2c3c1O[C@H]1c4ncc(-c5cnccn5)cc4C[C@@]4(OCCCc5ccccc5)[C@@H](C2)N(CC2CC2)CC[C@]314,1.27
3,Cn1cc(-c2cnc3c(c2)C[C@@]2(OCCCc4ccccc4)[C@H]4Cc5ccc(O)c6c5[C@@]2(CCN4CC2CC2)[C@H]3O6)cn1,19.6
4,CN(C)c1ccccc1-c1cnc2c(c1)C[C@@]1(OCCCc3ccccc3)[C@H]3Cc4ccc(O)c5c4[C@@]1(CCN3CC1CC1)[C@H]2O5,12.3
5,Oc1ccc2c3c1O[C@H]1c4ncc(-c5cncnc5)cc4C[C@@]4(OCCCc5ccccc5)[C@@H](C2)N(CC2CC2)CC[C@]314,0.87
6,CN(C)c1ccc(-c2cnc3c(c2)C[C@@]2(OCCCc4ccccc4)[C@H]4Cc5ccc(O)c6c5[C@@]2(CCN4CC2CC2)[C@H]3O6)cc1,2.53
7,Oc1ccc2c3c1O[C@H]1c4ncc(-c5ccncn5)cc4C[C@@]4(OCCCc5ccccc5)[C@@H](C2)N(CC2CC2)CC[C@]314,0.71
8,Oc1ccc2c3c1O[C@H]1c4ncc(-n5cccc5)cc4C[C@@]4(OCCCc5ccccc5)[C@@H](C2)N(CC2CC2)CC[C@]314,0.98
9,CN(C)c1cccc(-c2cnc3c(c2)C[C@@]2(OCCCc4ccccc4)[C@H]4Cc5ccc(O)c6c5[C@@]2(CCN4CC2CC2)[C@H]3O6)c1,3.76

# Biological target: T3, Mu-type opioid receptor (Homo sapiens, UniProt P35372)
# Test: biochemical
# Assay type: cell-based, CHO
# Conditions: not given
row,SMILES,Ki [nM]
1,CN(C)Cc1ccccc1-c1cnc2c(c1)C[C@@]1(OCCCc3ccccc3)[C@H]3Cc4ccc(O)c5c4[C@@]1(CCN3CC1CC1)[C@H]2O5,56.4
2,Oc1ccc2c3c1O[C@H]1c4ncc(-c5cnccn5)cc4C[C@@]4(OCCCc5ccccc5)[C@@H](C2)N(CC2CC2)CC[C@]314,88.7
3,Cn1cc(-c2cnc3c(c2)C[C@@]2(OCCCc4ccccc4)[C@H]4Cc5ccc(O)c6c5[C@@]2(CCN4CC2CC2)[C@H]3O6)cn1,3.79
4,CN(C)c1ccccc1-c1cnc2c(c1)C[C@@]1(OCCCc3ccccc3)[C@H]3Cc4ccc(O)c5c4[C@@]1(CCN3CC1CC1)[C@H]2O5,6.97
5,Oc1ccc2c3c1O[C@H]1c4ncc(-c5cncnc5)cc4C[C@@]4(OCCCc5ccccc5)[C@@H](C2)N(CC2CC2)CC[C@]314,47.9
6,CN(C)c1ccc(-c2cnc3c(c2)C[C@@]2(OCCCc4ccccc4)[C@H]4Cc5ccc(O)c6c5[C@@]2(CCN4CC2CC2)[C@H]3O6)cc1,4.7
7,Oc1ccc2c3c1O[C@H]1c4ncc(-c5ccncn5)cc4C[C@@]4(OCCCc5ccccc5)[C@@H](C2)N(CC2CC2)CC[C@]314,66.2
8,Oc1ccc2c3c1O[C@H]1c4ncc(-n5cccc5)cc4C[C@@]4(OCCCc5ccccc5)[C@@H](C2)N(CC2CC2)CC[C@]314,14.7
9,CN(C)c1cccc(-c2cnc3c(c2)C[C@@]2(OCCCc4ccccc4)[C@H]4Cc5ccc(O)c6c5[C@@]2(CCN4CC2CC2)[C@H]3O6)c1,15.8

# Biological target: T3, Mu-type opioid receptor
# Test: biochemical
# Conditions: not given
# Remark: another data set of the same source
row,SMILES,EC50 [nM]
1,CN(C)Cc1ccccc1-c1cnc2c(c1)C[C@@]1(OCCCc3ccccc3)[C@H]3Cc4ccc(O)c5c4[C@@]1(CCN3CC1CC1)[C@H]2O5,28.9
2,Oc1ccc2c3c1O[C@H]1c4ncc(-c5cnccn5)cc4C[C@@]4(OCCCc5ccccc5)[C@@H](C2)N(CC2CC2)CC[C@]314,> 3330
3,Cn1cc(-c2cnc3c(c2)C[C@@]2(OCCCc4ccccc4)[C@H]4Cc5ccc(O)c6c5[C@@]2(CCN4CC2CC2)[C@H]3O6)cn1,659
4,CN(C)c1ccccc1-c1cnc2c(c1)C[C@@]1(OCCCc3ccccc3)[C@H]3Cc4ccc(O)c5c4[C@@]1(CCN3CC1CC1)[C@H]2O5,233
5,Oc1ccc2c3c1O[C@H]1c4ncc(-c5cncnc5)cc4C[C@@]4(OCCCc5ccccc5)[C@@H](C2)N(CC2CC2)CC[C@]314,> 3330
6,CN(C)c1ccc(-c2cnc3c(c2)C[C@@]2(OCCCc4ccccc4)[C@H]4Cc5ccc(O)c6c5[C@@]2(CCN4CC2CC2)[C@H]3O6)cc1,2.1
7,Oc1ccc2c3c1O[C@H]1c4ncc(-c5ccncn5)cc4C[C@@]4(OCCCc5ccccc5)[C@@H](C2)N(CC2CC2)CC[C@]314,> 3330
8,Oc1ccc2c3c1O[C@H]1c4ncc(-n5cccc5)cc4C[C@@]4(OCCCc5ccccc5)[C@@H](C2)N(CC2CC2)CC[C@]314,1.61
9,CN(C)c1cccc(-c2cnc3c(c2)C[C@@]2(OCCCc4ccccc4)[C@H]4Cc5ccc(O)c6c5[C@@]2(CCN4CC2CC2)[C@H]3O6)c1,1.5

# Biological target: T2, Delta-type opioid receptor
# Test: Displacement of [3H]-diprenorphine from human delta opioid receptor expressed in CHO cell membranes incubated for 1 hr by competition radioligand binding assay
# Conditions: not given
row,SMILES,Ki [nM]
1,CN(C)Cc1ccccc1-c1cnc2c(c1)C[C@@]1(OCCCc3ccccc3)[C@H]3Cc4ccc(O)c5c4[C@@]1(CCN3CC1CC1)[C@H]2O5,14
2,Oc1ccc2c3c1O[C@H]1c4ncc(-c5cnccn5)cc4C[C@@]4(OCCCc5ccccc5)[C@@H](C2)N(CC2CC2)CC[C@]314,40.1
3,Cn1cc(-c2cnc3c(c2)C[C@@]2(OCCCc4ccccc4)[C@H]4Cc5ccc(O)c6c5[C@@]2(CCN4CC2CC2)[C@H]3O6)cn1,7.96
4,CN(C)c1ccccc1-c1cnc2c(c1)C[C@@]1(OCCCc3ccccc3)[C@H]3Cc4ccc(O)c5c4[C@@]1(CCN3CC1CC1)[C@H]2O5,69.6
5,Oc1ccc2c3c1O[C@H]1c4ncc(-c5cncnc5)cc4C[C@@]4(OCCCc5ccccc5)[C@@H](C2)N(CC2CC2)CC[C@]314,5.18
6,CN(C)c1ccc(-c2cnc3c(c2)C[C@@]2(OCCCc4ccccc4)[C@H]4Cc5ccc(O)c6c5[C@@]2(CCN4CC2CC2)[C@H]3O6)cc1,53.1
7,Oc1ccc2c3c1O[C@H]1c4ncc(-c5ccncn5)cc4C[C@@]4(OCCCc5ccccc5)[C@@H](C2)N(CC2CC2)CC[C@]314,22.1
8,Oc1ccc2c3c1O[C@H]1c4ncc(-n5cccc5)cc4C[C@@]4(OCCCc5ccccc5)[C@@H](C2)N(CC2CC2)CC[C@]314,< 0.169
9,CN(C)c1cccc(-c2cnc3c(c2)C[C@@]2(OCCCc4ccccc4)[C@H]4Cc5ccc(O)c6c5[C@@]2(CCN4CC2CC2)[C@H]3O6)c1,68.9
